“Also recorded” adds a separate entry of the source.
How the values were obtained:
Format in all cases: cell-based, human
JEG-3 cells [1] = experiment: Proliferation, change in confluence 0-24 h (IncuCyte Zoom, HTTS); conditions: for minimal effective concentration: read-out: Prolif ↓, lowest concentration at which the mean response value exceeded the mean control value ± 2*SD (rough binning); for cellular proliferation relative to vehicle control (rough binning): after 24 h, in at least one concentration; for Prolif ↓, lowest concentration at which the mean response value exceeded the mean control value ± 2*SD (rough binning): decrease; for Prolif ↑, lowest concentration at which the mean response value exceeded the mean control value ± 2*SD (rough binning): increase
From the text: (§1) JEG-3 human choriocarcinoma trophoblastic cells (American Type Culture Collection, VA, United States) were maintained in sterile-filtered Minimum Essential Media (MEM) supplemented with L-glutamine and phenol red (Thermo Fisher Scientific, MA, United States), 10% (v/v) heat-inactivated BenchMark Fetal Bovine Serum (Gemini Bio, CA, United States), 1% (v/v) sodium pyruvate (Thermo Fisher Scientific, MA, United States), and 1% (v/v) penicillin streptomycin (Sigma Aldrich, MO, United States). Cells were maintained in an incubator at 37°C with 5% CO2. JEG-3 cells were cultured in 10 cm tissue culture plates and cell passage numbers were recorded.
(§2) A total of 42 perfluoroalkyl substances (PFAS) were evaluated (Supplementary Table S1 contains source and purity). PFAS stock solutions were maintained in 100% methanol as previous work has shown certain PFAS degrade when stored in dimethyl sulfoxide (DMSO; [Gaballah et al., 2020]). […] The vehicle control group consisted of 97.5% media + 2.5% methanol to match the concentration of methanol in the media at the highest PFAS concentration tested (500 µM). Menadione (50–500 µM) was used as a positive control for cytotoxicity assessment. PFAS were de-identified and assigned random numbers to eliminate bias. Chemical exposure plate maps were designed so that all experimental conditions were tested in at least technical duplicates per plate. The outer edges of each plate received media alone and were excluded from all analyses to avoid edge effects. Each plate map included 14 technical replicates of the vehicle control group and 14 technical replicates of media only. Biological replicates were defined as separate 384 well plates tested on separate days using different cell passages. The experimental workflow is depicted in Supplementary Figure S1.
(§3) JEG-3 cells were counted using a Z2 Coulter Particle Counter (Beckman Coulter, CA, United States) and seeded at a density of 2,500 cells per well in black-walled, clear bottom 384 well plates (Corning, #3764) and allowed to adhere overnight. Approximately 24 h later, 384 well plates were imaged using an IncuCyte Zoom live cell imager (Essen BioScience Inc., MI, United States) to obtain baseline cellular confluence measurements prior to chemical dosing (0 h). Media was removed from wells and replaced with fresh media containing chemical treatments (exposure media) using a Viaflo liquid handling device (Integra Biosciences, NH, United States). Within 30 min of exposure media application, plates were again imaged for cellular confluence using the IncuCyte Zoom. Plates were incubated with exposure media for 24 h and then imaged again using the IncuCyte Zoom (24 h).
Plate well bottom images were evaluated using automated cell masking. The automated cell masking program was developed using IncuCyte Zoom base software. Cell masking parameters were defined using a training set of JEG-3 cell images obtained prior to conducting the experiments and following IncuCyte Zoom software recommendations. Briefly, the training images were obtained from cell culture plates with varying levels of JEG-3 cellular confluence (ranging from ∼15% confluent to ∼95% confluent). Parameters for the automated cell masking were first manually set by an experimenter for 3-6 images of low (∼15–30%), medium (∼30–70%), and high confluence (∼70% or greater). The training images were then evaluated by the automated masking program and manually checked to ensure the parameters were sufficiently strict to ignore background (e.g., blank space on the plate well bottom) but adequately sensitive to detect cell borders. The masking program was then implemented on the experimental plates to obtain a baseline cellular confluence measurement at 0 h and a second confluence measurement at 24 h. […]

JEG-3 cells [2] = experiment: CellTiter-Glo luminescent cell viability assay (HTTS); conditions: for Viability ↑, lowest concentration at which the mean response value exceeded the mean control value ± 2*SD (rough binning): increase; for cell viability relative to vehicle control (rough binning): after 24 h, in at least one concentration; for Viability ↓, lowest concentration at which the mean response value exceeded the mean control value ± 2*SD (rough binning): decrease
From the text: as §1, §2, §3
In the same plate evaluated for mitochondrial membrane potential, cell viability measures were duplexed using the CellTiter-Glo (CTG) Luminescent Cell Viability Assay (Promega, WI, United States). CTG reagent was added to each well at a volume of 20 µl. The plate was left at room temperature to incubate for 5 min and then 20 µl from each well was transferred to a low-volume, round-bottom, white 384 well plate (Corning, NY, United States). The CTG reagent lyses cellular and mitochondrial membranes and binds to adenosine triphosphate (ATP) released by cells, which produces a luminescence signal. The intensity of the luminescence was considered a proxy measure for the number of live cells in a well. The luminescence intensities were measured using the CLARIOstar plate reader.
HTTS data were analyzed using a custom data analysis script in R v 1.2.5019 ([R Core Team, 2019]). Briefly, raw data points corresponding to the confluence measurements at 0 and 24 h, the fluorescence intensities corresponding to MMP, and the relative luminescence units (RLU) corresponding to cell viability were imported directly from Microsoft Excel into the R programming environment, RStudio. Separate plates run on separate days using different JEG-3 passages were considered as biologic replicates. […]

JEG-3 cells [3] = experiment: Mitochondrial membrane potential, JC-10 assay (HTTS); conditions: for minimal effective concentration: read-out: MMP ↓, lowest concentration at which the mean response value exceeded the mean control value ± 2*SD (rough binning); for MMP relative to vehicle control (rough binning): after 24 h, in at least one concentration
From the text: as §1, §2, §3
The JC-10 assay (Enzo Life Sciences, NY, United States) was used to evaluate mitochondrial membrane potential, the main bioenergetic parameter that regulates respiratory rate, ATP synthesis and reactive oxygen species generation. In cells with polarized mitochondrial membranes, the JC-10 dye localizes to the mitochondrial matrix and forms red fluorescent aggregates (540/590 nm). In cells with depolarized mitochondrial membranes, the JC-10 dye localizes in the cytoplasm and converts to a green fluorescent monomer (490/525 nm). Mitochondrial membrane potential was calculated as the ratio of the green and red fluorescence intensities within a well.
At the end of the 24 h exposure period, exposure media was removed from the plate. The plate wells were then washed with 1x phosphate buffered saline (1x PBS). After washing, the JC-10 reagent was suspended in fresh 1x PBS and 20 µl was added to each well at a final concentration of 20 μM (Enzo Life Sciences, NY, United States). The plate was incubated for 1 h at 37°C, and the fluorescence intensities at excitation/emission wavelengths of 490/525 nm and 540/590 nm were measured using a CLARIOstar (BMG Labtech, Offenburg, Germany) plate reader, respectively.
HTTS data were analyzed using a custom data analysis script in R v 1.2.5019 ([R Core Team, 2019]). […]

[4] = Homo sapiens, JEG-3, 24 h, read-out: Proliferation EC50 ± SD, JEG-3 cells, 24 h exposure, four-parameter fit, estimates meeting inclusion criteria
[5] = Homo sapiens, JEG-3, 24 h, read-out: Viability EC50 ± SD, JEG-3 cells, 24 h exposure, four-parameter fit, estimates meeting inclusion criteria
[6] = Homo sapiens, JEG-3, 24 h, read-out: MMP EC50 ± SD, JEG-3 cells, 24 h exposure, four-parameter fit, estimates meeting inclusion criteria
[7] = JEG-3 cells, 24 h exposure, four-parameter fit, estimates meeting inclusion criteria, read-out: Proliferation EC50 ± SD
[8] = JEG-3 cells, 24 h exposure, four-parameter fit, estimates meeting inclusion criteria, read-out: MMP EC50 ± SD
[9] = JEG-3 cells, raw model output including fits that did not meet inclusion criteria, read-out: MMP EC50 ± SD (raw values)
[10] = JEG-3 cells, 24 h exposure, four-parameter fit, estimates meeting inclusion criteria, read-out: Viability EC50 ± SD

Row | Compound | minimal effective concentration (JEG-3 cells [1]; Homo sapiens, JEG-3, 24 h) [µM] | cellular proliferation relative to vehicle control (rough binning) (JEG-3 cells [1]) | Viability ↑, lowest concentration at which the mean response value exceeded the mean control value ± 2*SD (rough binning) (JEG-3 cells [2]; JEG-3 cells, 24 h) [µM] | cell viability relative to vehicle control (rough binning) (JEG-3 cells [2]) | EC50 (JEG-3 cells [3]; [6]) [µM] | minimal effective concentration (JEG-3 cells [3]; Homo sapiens, JEG-3, 24 h) [µM] | MMP relative to vehicle control (rough binning) (JEG-3 cells [3]) | Prolif ↓, lowest concentration at which the mean response value exceeded the mean control value ± 2*SD (rough binning) (JEG-3 cells [1]; JEG-3 cells, 24 h) [µM] | EC50 (JEG-3 cells [1]; [7]) [µM] | EC50 (JEG-3 cells [3]; [8]) [µM] | EC50 (JEG-3 cells [2]; [10]) [µM] | also measured
1 | O=C(O)C(F)(F)OC(F)(F)C(F)(F)OC(F)(F)F [Perfluoro-3,6-dioxaheptanoic acid] | 400 | reduced cellular proliferation | 200 | increased cell viability | 368 | 400 | reduced MMP |  |  |  |  | EC50 (JEG-3 cells [1]; [4]): 351 ± 11.8 µM; EC50 (JEG-3 cells [2]; [5]): 326 ± 85.7 µM; EC50 (JEG-3 cells [3]; read-out: MMP EC50 ± SD, JEG-3 cells, 24 h exposure, four-parameter fit, estimates meeting inclusion criteria): 368 ± 22.6 µM
2 | Cc1ccc(S(=O)(=O)OCC(F)(F)C(F)(F)C(F)(F)C(F)(F)F)cc1 [1H,1H-Nonafluoropentyl p-toluenesulfonate] |  | reduced cellular proliferation | 50 | increased cell viability |  |  |  | 400 | 306 ± 47.9 | 159 ± 17.7 |  | 
3 | O=S(=O)(O)C(F)(F)C(F)(F)C(F)(F)C(F)(F)C(F)(F)C(F)(F)C(F)(F)F [Perfluoroheptanesulfonic acid] |  |  |  |  |  |  |  | 232.5 | 296 ± 201 |  |  | Prolif ↑, lowest concentration at which the mean response value exceeded the mean control value ± 2*SD (rough binning) (JEG-3 cells [1]; JEG-3 cells, 24 h): 23.25 µM; EC50 (JEG-3 cells [2]; JEG-3 cells, raw model output including fits that did not meet inclusion criteria, read-out: Viability EC50 ± SD (raw values)): 1980 ± 2480 µM; EC50 (JEG-3 cells [3]; [9]): 874 ± 1750 µM
4 | O=P(O)(O)OCCC(F)(F)C(F)(F)C(F)(F)C(F)(F)C(F)(F)C(F)(F)F [6:2 Fluorotelomer phosphate monoester] |  |  |  |  |  |  |  |  | 193 ± 3.8 | 248 ± 62.1 | 183 ± 21.7 | EC50 (JEG-3 cells [1]; JEG-3 cells, 24 h, read-out: proliferation EC50 ± SE): 193 ± 4 µM; EC50 (JEG-3 cells [2]; JEG-3 cells, 24 h, read-out: viability EC50 ± SE): 183 ± 22 µM
5 | O=C(O)C(F)(F)C(F)(F)C(F)(F)C(F)(F)C(F)(F)C(F)(F)C(F)(F)C(F)(F)C(F)(F)C(F)(F)F [Perfluoroundecanoic acid] |  | reduced cellular proliferation |  | reduced cell viability |  |  | reduced MMP | 100 | 230 ± 13.3 | 200 ± 4 | 266 ± 12.4 | Viability ↓, lowest concentration at which the mean response value exceeded the mean control value ± 2*SD (rough binning) (JEG-3 cells [2]; JEG-3 cells, 24 h): 300 µM; MMP ↓, lowest concentration at which the mean response value exceeded the mean control value ± 2*SD (rough binning) (JEG-3 cells [3]; JEG-3 cells, 24 h, decrease): 100 µM
6 | O=C(O)C(F)(F)C(F)(F)C(F)(F)C(F)(F)C(F)(F)F [Perfluorohexanoic acid] | 100 | reduced cellular proliferation | 300 | increased cell viability | 142 ± 12.6 | 100 | reduced MMP |  |  |  |  | EC50 (JEG-3 cells [1]; Homo sapiens, JEG-3, read-out: Proliferation EC50 ± SD (raw values), JEG-3 cells, raw model output including fits that did not meet inclusion criteria): 10418 ± 10 µM; EC50 (JEG-3 cells [3]; Homo sapiens, JEG-3, 24 h, read-out: MMP EC50 ± SE, JEG-3 cells, 24 h): 141 ± 11.1 µM
7 | O=C(O)C(F)(F)C(F)(F)C(F)(F)C(F)(F)C(F)(F)C(F)(F)C(F)(F)C(F)(F)C(F)(F)F [Perfluorodecanoic acid] | 250 | reduced cellular proliferation | 50 | reduced cell viability; also recorded: increased cell viability | 236 ± 160 | 50 | reduced MMP |  |  |  |  | EC50 (JEG-3 cells [1]; [4]): 234 ± 22.8 µM; EC50 (JEG-3 cells [2]; [5]): 181 ± 25.6 µM; EC50 (JEG-3 cells [2]; Homo sapiens, JEG-3, 24 h, read-out: viability EC50 ± SE, JEG-3 cells, 24 h): 181 ± 26 µM; Viability ↓, lowest concentration at which the mean response value exceeded the mean control value ± 2*SD (rough binning) (JEG-3 cells [2]; JEG-3 cells, 24 h): 200 µM
8 | O=C(O)C(F)(F)C(F)(F)C(F)(F)C(F)(F)C(F)(F)C(F)(F)C(F)F [8-H-Perfluorooctanoic acid] |  |  |  |  |  |  |  |  | 441 ± 18.1 | 147 ± 27.1 | 318 ± 183 | 
9 | O=P(O)(O)OCCC(F)(F)C(F)(F)C(F)(F)C(F)(F)C(F)(F)C(F)(F)C(F)(F)C(F)(F)F [8:2 Fluorotelomer phosphate monoester] |  |  |  |  |  |  |  |  | 251 ± 37.6 | 312 ± 29.8 | 360 ± 30.3 | 
10 | O=C(O)CCC(F)(F)C(F)(F)C(F)(F)C(F)(F)C(F)(F)F [2H,2H,3H,3H-Perfluorooctanoic acid] |  | increased cellular proliferation |  | increased cell viability |  |  |  |  |  |  |  | Prolif ↑, lowest concentration at which the mean response value exceeded the mean control value ± 2*SD (rough binning) (JEG-3 cells [1]; JEG-3 cells, 24 h): 50 µM; EC50 (JEG-3 cells [1]; JEG-3 cells, raw model output including fits that did not meet inclusion criteria, read-out: Proliferation EC50 ± SD (raw values)): 951 ± 671 µM; EC50 (JEG-3 cells [3]; [9]): 71780 ± 10 µM

— PMC9081605, “A High-Throughput Toxicity Screen of 42 Per- and Polyfluoroalkyl Substances (PFAS) and Functional Assessment of Migration and Gene Expression in Human Placental Trophoblast Cells” (Frontiers in Toxicology, 2022)
